In patent publication US6194173A, “Binding proteins for phosphoinositides, GRP1 or general receptor 1 for phophoinositide” (priority 1999, dated 2001):

Legend:
PH domain of GRP [1] = molecular target: T1, PH domain of GRP (Mus musculus, UniProt O08967); assay: Competition for [3H]dioctanoyl PtdIns(3,4,5)P3 binding to the PH domain of GRP; set-up: GST fused to the PH region of GRP (amino acids 239-399); made in house; host or cells: bacteria; settings: dioctanoyl
T1 sequence (O08967 239-399): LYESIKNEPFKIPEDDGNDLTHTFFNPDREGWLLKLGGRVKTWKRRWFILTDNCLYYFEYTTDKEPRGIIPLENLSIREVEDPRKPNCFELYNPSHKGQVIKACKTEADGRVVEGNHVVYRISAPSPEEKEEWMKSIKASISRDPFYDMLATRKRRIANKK
Experimental: Binding assays were performed as described in (Rameh, L. E. et al., J. Biol. Chem., In Press). Briefly, GST fused to the PH region of GRP (amino acids 239-399) was bound to glutathione immobilized on agarose beads (Sigma). Synthetic [^3 H]-labeled diotanoyl PtdIns(3,4,5)P3 was added, and after one hour the beads were separated from the supernatant by centrifugation. The amount of [^3 H]-PtdIns(3,4,5)P3 bound to the PH domain was calculated by subtracting the amount of free [^3 H] present in supernatants from GST-GRP from the amount of free [^3 H] in supernatants from control GST. The data was fitted to the equation [bound]=Bmax×[free]/(KD + [free]) by least squares curve fit. For the competition assays the beads containing the GST-fusion proteins were incubated with 2.5 μM[^3 H]-labeled dioctanoyl PtdIns(3,4,5)P3 bound was calculated based on the amount of [^3 H] bound to the beads in the absence of competitor. The total [^3 H] bound to the GST control was less then 0.5% of the total [^3 H] bound to GRP PH domain. The data was fitted to the equation % bound=100-n×L/Klapp +L) where n is the % specific binding, L is the concentration of unlabeled lipid added and Klapp is the apparent competitive dissociation constant. The rations of the apparent dissociation constants accurately reflect the ratios of the true dissociation constants under the present experimental conditions (Rameh, L. E. et al., J. Biol. Chem., In Press).
The data depicted in FIG. 8 indicate that receptor signaling through PI3-kinases, which generates PtdIns(3,4,5)P3, may specifically regulate ARF proteins through GRP. In order to further test this, the relative binding affinities of PtdIns(3,4,5)P3 versus PtdIns (4,5)P2, which is constitutively present in cell membranes, for the PH domain of GRP were determined. A GST fusion protein of the PH domain of GRP was incubated with various concentrations of synthetic [^3 H]dioctanoyl PtdIns(3,4,5)P3 and binding was determined (FIG. 9A). These experiments show high affinity binding of this polyphosphoinositide,with a calculated Kd=0.5 μM.

[2] = system: receptor-regulated cell adhesion; settings: cited from earlier work
[3] = molecular target: T2, proteins encoded by both brain and adipocyte cDNA clones (GRP) (Mus musculus, UniProt O08967); assay: Binding of 32P-labeled phosphoinositides to protein of isolated cDNA clones on nitrocellulose filters (library screen); settings: library screening conditions
T2 construct: lack four residues
T2 sequence (O08967 5-399): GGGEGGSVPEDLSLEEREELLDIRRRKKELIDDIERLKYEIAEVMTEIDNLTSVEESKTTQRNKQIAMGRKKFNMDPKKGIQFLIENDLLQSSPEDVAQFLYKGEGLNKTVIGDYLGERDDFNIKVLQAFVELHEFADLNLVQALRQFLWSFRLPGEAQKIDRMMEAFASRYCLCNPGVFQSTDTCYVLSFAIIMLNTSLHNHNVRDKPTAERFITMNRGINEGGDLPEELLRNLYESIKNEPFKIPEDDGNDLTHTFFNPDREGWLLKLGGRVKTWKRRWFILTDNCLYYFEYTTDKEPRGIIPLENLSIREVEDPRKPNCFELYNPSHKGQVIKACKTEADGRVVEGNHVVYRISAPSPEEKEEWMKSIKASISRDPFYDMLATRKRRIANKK

PH domain of GRP [4] = molecular target: T1, PH domain of GRP; assay: Binding specificity of the GRP PH domain for 32P-labeled phosphoinositides (GST-PH on nitrocellulose); set-up: species or system murine; settings: GST-PH, 25,000 cpm lipid; relative to GST
Experimental: The 3'-phosphatidylinositol probes labeled at the 3' position were generated using GST-p110 PI3-kinase purified from recombinant bacculovirus infected Sf 9 cells, using either purified phosphatidylinositol phosphates or crude brain lipid. Briefly, 20 mg phospholipid in chloroform was dried under N2 and resuspended in […] of buffer containing Tris-HCl pH 7.4, EDTA 1 mM and incubated in […] phopsphorylation media containing 20 mM Tris-HCl pH 7.4, 100 mM NaCl, 10 mM MgCl2, 0.5 mM EGTA. 0.2 mM adenosine, GST-p110 and 5-10 mCi [g-^32 P]ATP (5 Ci/umol). The reaction was carried out for 2 h at room temperature, quenched by addition of 0.2 ml of 1M HCl, followed by 0.5 ml of chloroform:methanol (1:1). The organic phase containing phospholipids was washed 4 times with 0.4 ml of methanol:HCl (1: 1) and stored at -70° C. until use. Just before use, the lipid was dried under a stream of nitrogen with phosphatidyl serine corresponding to a final concentration of 20 mg/ml. The identities of the PI3-P, PI3,4-P2 and PI3,4,5-P3 were confirmed by TLC and HPLC analysis.
To generate the GST fusion proteins, PCR reactions using the primers: […] (SEQ ID NO:9) and […] (SEQ ID NO:10) for the GST-N construct, […] (SEQ ID NO:11) and […] (SEQ ID NO:12) for the GST-Sec7 construct, […] (SEQ ID NO:13) and […] (SEQ ID NO:14) for the GSTPH construct, and […] […] The filters were washed four times with 1 mL assay buffer and counted in a scintillation counter.
In order to determine whether PI(3,4,5)P3 binding could be localized to specific sequences within the GRP structure, GST fusion proteins containing either residues 239 to 399 (PH domain), residues 52 to 260 (Sec7 domain), or residues 5 to 71, full length GRP residues 5-399 were expressed in bacteria and purified on glutathione-conjugated beads. […] 150 pmol of the proteins were spotted on nitrocellulose filters, incubated with [^32 P]PI(3,4,5)P3 and the amount of bound lipid was determined as described. […] Nitrocellulose filters with GST-PH were incubated with 25,000 cpm of each of the phospholipids and the amount of bound lipid determined as described above. […]

GRP = molecular target: T3, GRP (Mus musculus, UniProt O08967); assay: Effect of phosphoinositides on GRP-catalyzed ARF1 guanine nucleotide exchange; assay type: biochemical; settings: 25 μM lipid, 0.15 μM GRP
T3 construct: GST (N, cleaved yes); made in house; host or cells: GRP from pGEX-4T; ARF1 from baculovirus-infected Sf-9 cells
T3 sequence (O08967 1-399): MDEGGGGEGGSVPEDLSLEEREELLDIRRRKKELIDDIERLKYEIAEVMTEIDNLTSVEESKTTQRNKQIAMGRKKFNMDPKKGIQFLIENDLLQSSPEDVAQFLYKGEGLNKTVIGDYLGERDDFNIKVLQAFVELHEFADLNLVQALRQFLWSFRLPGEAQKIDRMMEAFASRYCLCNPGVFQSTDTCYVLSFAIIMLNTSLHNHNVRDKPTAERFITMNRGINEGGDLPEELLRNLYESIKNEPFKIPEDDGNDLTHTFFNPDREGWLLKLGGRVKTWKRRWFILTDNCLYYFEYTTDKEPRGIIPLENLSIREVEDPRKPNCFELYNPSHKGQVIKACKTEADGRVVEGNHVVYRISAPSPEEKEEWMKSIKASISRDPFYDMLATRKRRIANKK

CCCCCCCC(=O)OC[C@H](COP(=O)(O)O[C@@H]1[C@H](O)[C@H](O)[C@@H](OP(=O)(O)O)[C@H](OP(=O)(O)O)[C@H]1O)OC(=O)CCCCCCC [dioctanoyl PtdIns(4,5)P2]
apparent affinity lower than that for dioctanoyl PtdIns(3,4,5)P3 (PH domain of GRP [1]): about two orders of magnitude lower

COC[C@H]1OC(=O)c2coc3c2[C@@]1(C)C1=C(C3=O)[C@@H]2CCC(=O)[C@@]2(C)C[C@H]1OC(C)=O [wortmannin]
receptor-regulated cell adhesion [2]: inhibits receptor-regulated cell adhesion

PI(3)P
binding of labeled phosphoinositide to the cDNA clone protein [3]: not | binding of labeled phosphoinositide to the GRP PH domain (PH domain of GRP [4]): failed to bind

PtdIns(3,4)P2
binding of labeled phosphoinositide to the cDNA clone protein [3]: not | binding of labeled phosphoinositide to the GRP PH domain (PH domain of GRP [4]): failed to bind | stimulation of ARF1 exchange activity in the presence of GRP (GRP; 0.05% cholate and 0.05% CHAPS (low negative charge)): little or no effect | stimulation of ARF1 exchange activity in the presence of GRP (GRP; 0.1% cholate (high negative charge)): stimulated
